We go through ten molecules from patent US6121296A, “Transition-state inhibitors for nucleoside hydrolase and transferase reactions” (Albert Einstein College of Medicine of Yeshiva University, priority 1998, dated 2000).

Read-outs that look alike come from different tables or passages of the source. Where only a bound is given, the exact number is not on record here.

Data set [1] addresses T1, nucleoside hydrolase (Crithidia fasciculata, UniProt Q27546).
T1 construct: nucleoside hydrolase was purified from C. fasciculata as described above; endogenous in cells; host or cells: Crithidia fasciculata cells grown in a 300-liter fermenter
T1 sequence (Q27546 1-315): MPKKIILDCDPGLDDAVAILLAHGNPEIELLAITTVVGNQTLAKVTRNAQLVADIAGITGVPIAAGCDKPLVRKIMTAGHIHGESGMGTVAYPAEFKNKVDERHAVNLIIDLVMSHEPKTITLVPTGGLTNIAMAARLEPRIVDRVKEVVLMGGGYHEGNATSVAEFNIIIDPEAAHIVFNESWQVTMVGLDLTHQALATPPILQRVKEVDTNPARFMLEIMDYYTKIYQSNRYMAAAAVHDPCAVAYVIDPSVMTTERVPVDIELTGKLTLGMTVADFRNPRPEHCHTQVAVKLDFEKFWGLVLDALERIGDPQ
In words: Inhibition of nucleoside hydrolase, inosine hydrolysis monitored at 280 nm, bis-tris pH 7.3. Format: biochemical. Here is the method: All assays were performed at 30° C. in 50 mM bis-tris buffer at pH 7.3. The substrate for all assays was inosine. Inhibition studies were performed by examining the initial velocity of the hydrolysis of inosine as a function of inosine concentration and (2S)-phenyl-(3S,4R)-dihydroxy-(5R)-hydroxymethylpyrrolidine concentration. A total of 75 velocity measurements were made.
The general protocol for measurement was as follows: various concentrations of inosine and inhibitor in the above buffer were prepared, and 1.0 mL aliquots placed in a quartz cuvette and equilibrated at 30° C. […] The decrease in absorption at 280 nm was monitored over a 10 minute period.

For data set [2], the target named is T2, IU-nucleoside hydrolase (Crithidia fasciculata, UniProt Q27546, P2A).
T2 construct: contained the coding region for the enzyme; made in house; host or cells: E. coli BL21 (DE3)pLysS, pET3d plasmid
In words: biochemical. Format: biochemical, C. fasciculata. The note with it: for inhibition pattern: minimum of four substrate and three inhibitor concentrations. From the text: Enzymes. Inosine-uridine nucleoside hydrolase (IU-nucleoside hydrolase) was purified from extracts of E. coli strain BL21 (DE3)pLysS which contained the coding region for the enzyme isolated from C. fasciculata in a pET3d expression plasmid. The DNA coding for the enzyme was placed in the NcoI-BamHI site. This construct gives a Pro2Ala substitution which has no significant effect on the kinetic properties of the purified enzyme. The overexpressed enzyme was purified to apparent homogeneity as previously described (Gopaul, et al. (1996) Biochemistry 35, 5963-5970).
(§1) Enzyme Assays. Initial rate measurements were accomplished at 30° C. in reaction mixtures containing 50 mM potassium phosphate, pH 7.5, or 50 mM Hepes, pH 8.0, and nitrophenylribose or inosine as substrates (Mazella, et al. (1996) J. Am. Chem. Soc. 118, 2111-2112). At pH 7.5 the product p-nitrophenylate anion is present at a concentration which gives a millimolar extinction coefficient of 9.3 cm^-1 at 400 nm. Reaction mixtures with nitrophenylribose as substrate were initiated by the addition of enzyme, and product formation was monitored by continuous recording at 400 nm. With inosine as substrate, the conversion to hypoxanthine was monitored continuously at 280 nm (Parkin, et al. (1991) J. Biol. Chem. 266, 20658-20665). […] The remainder of the inhibitors were analyzed at one fixed substrate concentration and variable inhibitor concentrations. Inhibition constants for IAG-nucleoside hydrolase were established from full kinetic analysis with V and X as inhibitors. […] The remainder of the inhibition constants were characterized by titration of assay mixtures containing a fixed concentration of substrate with variable inhibitor concentrations. […] For Ki determination at a fixed substrate concentration, this approach assumes that substrate and inhibitor compete for the catalytic site.
Inhibitors. Iminoribitol inhibitor were synthesized and purified according to the methods of Furneaux, et al. (Tetrahedron (1997) in press), characterized by NMR, dissolved in H2 O and stored at -20° C. The compounds are enzymatically and chemically stable in H2 O and under conditions of the assay. IU-Nucleoside hydrolase is susceptible to slow-onset tight-binding inhibition under certain conditions (Horenstein & Schramm, (1993b) Biochemistry 32, 9917-9925, Boutellier, et al. (1994) Biochemistry, 33, 3994-4000). However, in the initial reaction rate conditions described here, only the rapidly reversible competition between substrate and inhibitor is being observed. Thus, the reported kinetic constants are dissociation constants which exclude slow-onset binding.

The target in data set [3] is IAG-nucleoside hydrolase (Trypanosoma brucei, UniProt Q57ZL6). In words: Inhibition of IAG-nucleoside hydrolase, initial rates. The note with it: for Km /Ki IAG-nucleoside hydrolase: comparison with inosine; for inhibition pattern: full kinetic analysis. The procedure:
The enzyme was purified to apparent homogeneity as determined by denaturing polyacrylamide gel electrophoresis (Parkin, (1996) J. Biol. Chem. 271, 21713-21719). Some of the studies used the T. brucei brucei enzyme which was overexpressed in E. coli.
as §1, with “concentrations.” for “concentrations. Inhibition constants for IAG-nucleoside hydrolase were established from full kinetic analysis with V and X as inhibitors.”
Inhibitors. Iminoribitol inhibitor were synthesized and purified according to the methods of Furneaux, et al. (Tetrahedron (1997) in press), characterized by NMR, dissolved in H2 O and stored at -20° C.

Data set [4] concerns the target T2, IU-nucleoside hydrolase. The settings on record: cited from earlier work.
Substrate in data set [5]: OC[C@H]1O[C@@H](n2cnc3c(O)ncnc32)[C@H](O)[C@@H]1O
In words: purified protein, by the assay type. The settings on record: other: inosine as substrate; 30.0 °C.

[6] abbreviates: KI IU-nucleoside hydrolase, Table V.

T2 sequence (Q27546 whole entry P2A): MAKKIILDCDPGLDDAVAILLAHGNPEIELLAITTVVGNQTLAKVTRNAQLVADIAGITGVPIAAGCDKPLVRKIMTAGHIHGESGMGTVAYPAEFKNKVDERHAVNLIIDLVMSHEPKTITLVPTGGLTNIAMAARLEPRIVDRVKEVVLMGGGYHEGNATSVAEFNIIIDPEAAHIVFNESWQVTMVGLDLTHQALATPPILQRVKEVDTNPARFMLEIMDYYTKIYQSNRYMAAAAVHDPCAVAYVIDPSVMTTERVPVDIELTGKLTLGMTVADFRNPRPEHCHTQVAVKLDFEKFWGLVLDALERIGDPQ

Turning to `OC[C@H]1N[C@@H](c2ccccc2)[C@H](O)[C@@H]1O` [(2S)-phenyl-(3S,4R)-dihydroxy-(5R)-hydroxymethyl-pyrrolidine], in data set [1], the “binding better than the substrate inosine” value is reported as “approximately 2,000 fold” and the inhibition pattern result is listed as “competitive inhibition pattern”. The Ki in data set [1] (read-out: inhibition constant) amounted to 0.15 µM.
As to `OC[C@H]1N[C@@H](c2ccccc2)[C@H](O)[C@@H]1O` [V, phenyliminoribitol], the inhibition pattern result is reported as “slope-linear competitive inhibitors” in data set [2] and “competitive inhibition” in data set [3]. Besides, the Ki in data set [3] is 180 µM; in data set [4] (read-out: KI IU-nucleoside hydrolase, from Horenstein and Schramm (1993b)), 0.3 µM; in data set [4] (read-out: Ki IU-nucleoside hydrolase, Table VI, taken from Horenstein and Schramm (1993b)), 0.3 µM. Moreover, the “Km /KI IAG-nucleoside hydrolase” value in data set [3] is reported as 0.1. In addition, in data set [3] (Table VI), the “Km /Ki IAG-nucleoside hydrolase” value is given as 0.1.
For `OC[C@H]1N[C@@H](c2ccc(F)cc2)[C@H](O)[C@@H]1O` [VIII], the results for the Ki in data set [2] (setting [6]) and in data set [3] were 0.057 ± 0.005 µM and 205 ± 14 µM, respectively. Further, the inhibition pattern result in data set [2] was “slope-linear competitive inhibitors”. For the same molecule, in data set [3], the “Km /KI IAG-nucleoside hydrolase” value is listed as 0.088.
Take `Nc1cccc([C@@H]2N[C@H](CO)[C@@H](O)[C@H]2O)c1` [IX]: the Ki in data set [2] (setting [6]) amounted to 0.051 ± 0.004 µM. For the same molecule, in data set [3], the Ki amounted to 38 ± 4 µM and the “Km /KI IAG-nucleoside hydrolase” value came out at 0.47.
As to `Nc1ccc([C@@H]2N[C@H](CO)[C@@H](O)[C@H]2O)cc1` [X], the Ki in data set [2] (setting [6]) was 0.03 ± 0.002 µM. Besides, in data set [3], the Ki was determined as 12 ± 1 µM; the “Km /KI IAG-nucleoside hydrolase” value turned out to be 1.5; the “binding compared to inosine” value is listed as “binds as well as the preferred substrate, inosine”; the inhibition pattern entry is recorded as “competitive inhibition”.
As to `OC[C@H]1NC[C@H](O)[C@@H]1O` [I], the inhibition pattern result in data set [2] is “slope-linear competitive inhibitors”. For the same molecule, the Ki was 44 ± 4 µM in data set [3]; 4.5 ± 0.4 µM in data set [4] (Table V, from Horenstein and Schramm (1993b), read-out: KI IU-nucleoside hydrolase). The “Km /KI IAG-nucleoside hydrolase” value in data set [3] came to 0.41.
As for `OC[C@H]1O[C@@H](c2ccccc2)[C@H](O)[C@@H]1O` [XIII, 1-deoxy-1-C-phenyl-β-D-ribofuranose, reference compound], the Ki in data set [2] (Ki IU-nucleoside hydrolase, Table VI, 58 μM nitrophenylriboside, 50 mM Hepes, pH 8.0) is 600 µM; in data set [2] (inhibition constant IU-enzyme, text b399, unit inferred), 1600 µM; in data set [3], more than 30000 µM; in data set [3] (read-out: Ki IAG-nucleoside hydrolase, Table VI, XIII: 560 μM nitrophenylriboside, 50 mM Hepes, pH 8.0, lower limit) it was more than 30000 µM. Further, the “decline of affinity relative to inosine” value in data set [3] is on record as more than 1670 fold. Further, in data set [3] (10 mM XIII), the “binding / inhibition at 10 mM” value is “no binding can be detected”. For the same molecule, the “Km /Ki IAG-nucleoside hydrolase” value in data set [3] (Table VI) is less than 0.0006.
Take `OC[C@H]1N[C@@H](c2ccc(Cl)cc2)[C@H](O)[C@@H]1O` [XI]: the Ki was 0.03 ± 0.0014 µM in data set [2] (setting [6]) and 190 ± 8 µM in data set [3]. Further, the inhibition pattern result in data set [2] was “slope-linear competitive inhibitors”. Also, in data set [3], the “Km /KI IAG-nucleoside hydrolase” value was found to be 0.095.
Turning to `O=[N+]([O-])c1cccc([C@@H]2N[C@H](CO)[C@@H](O)[C@H]2O)c1` [III], the Ki in data set [2] (setting [6]) is 7.5 ± 0.5 µM. In data set [3], the Ki is more than 360 µM and the “Km /KI IAG-nucleoside hydrolase” value is less than 0.05. Further, the “inhibition at highest concentration tested” value in data set [3] (80, 120, 120 and 160 μM II, III, IV and VI respectively, 75 μM inosine) is “NO inhibition was observed”.

B1: IAG-nucleoside hydrolase (Trypanosoma brucei brucei TREU927) (protein)
chain: MAKTVILDHDGNKDDFVAMILLLSNPKKVNLIGCICTDADCFVENGFDVTGKIMCAMHRLIKTPLFPIGKSTATAVNAFPTEWRFSAKNLDDMPFLNIVEDVALWEKLKPENEAHNGQQLLADLVMKSKEKVTVCVTGPLSNMAWCIEKYGEAFTSKVEECVIMGGAVDVGGNVFLPTTDGSAEWNIYWDPPAAKKVLCCPNIRCVLFSLDATNTVPVRSVDVKGFGAQNQYLLSQMVGTMWAMSTHEEILRDGDAYYAWDALTAAYILEPTIATLEPVALDVDVSKGKSEGRTPRASGEGKPCVHVARNPSKQMFHDLVFASTRVC
As for B1, the Km in data set [5] was found to be 18 ± 1 µM.
